Source: patent US20110015065A1 (priority 2008, published 2011)

Columns and labels:
Pyricularia oryzae = type: cell-based; conditions: 10 days after inoculation
Phakopsora pachyrhizi = experiment: Curative control of soybean rust on soy beans caused by Phakopsora pachyrhizi (glasshouse); type: in vivo; conditions: comparative trial (Use example 7), untreated 100
Protocol: The active compounds were formulated separately or together as a stock solution comprising 25 mg of active compound which was made up to 10 ml using a mixture of acetone and/or dimethyl sulfoxide (DMSO) and the emulsifier Wettol EM 31 (wetting agent having emulsifying and dispersing action based on ethoxylated alkylphenols) in a volume ratio of solvent/emulsifier of 99 to 1. This solution was then made up to 100 ml using water. This stock solution was diluted with the solvent/emulsifier/water mixture described to the active compound concentration given below.
Leaves of pot-grown soybean seedlings were inoculated with spores of Phakopsora pachyrhizi. To ensure the success of the artificial inoculation, the plants were transferred to a humid chamber with a relative humidity of about 95% and 23 to 27° C. for 24 h. The next day the plants were sprayed to run-off with an aqueous suspension, containing the concentration of active ingredient or their mixture as described below. The plants were allowed to air-dry. Then the trial plants were cultivated for 14 days in a greenhouse chamber at 23-27° C. and a relative humidity between 60 and 80%. The extent of fungal attack on the leaves was visually assessed as % diseased leaf area.
The spray solutions were prepared as described for “Examples of the action against harmful fungi” (II. B).
The trial was conducted as described for Use example 3.

| Structure (SMILES) | Growth (%) at 31 ppm (Pyricularia oryzae) [%] | Disease level (%) at 250 ppm (Phakopsora pachyrhizi) [%] | Growth (%) at 2 ppm (Pyricularia oryzae) [%] |
| --- | --- | --- | --- |
| Cc1cnccc1CNS(=O)(=O)c1ccc(-c2ccc(Cl)cc2Cl)cc1 | 30 | – | – |
| COc1cc(CNS(=O)(=O)c2ccc(-c3ccc(C(F)(F)F)cc3C(F)(F)F)cc2)ccn1 | – | 100 | – |
| COc1cc(CNS(=O)(=O)c2ccc(-c3ccc(C(F)(F)F)cc3C(F)(F)F)cc2)sn1 [I-2] | – | 5 | – |
| COc1cc(CNS(=O)(=O)c2ccc(-c3ccc(Cl)cc3Cl)cc2)sn1 [I-3] | – | – | 46 |
| Cn1nccc1CNS(=O)(=O)c1ccc(-c2ccc(Cl)cc2Cl)cc1 [I-46] | 16 | – | – |
| COc1cc(CNS(=O)(=O)c2ccc(-c3ccc(Cl)cc3Cl)cc2)ccn1 [Table C) I-76 according to WO06/097489] | – | – | 68 |
